Columns and labels:
Assay type in all cases: biochemical
[1] = biological target: T1, CDK1/CyclinB (Homo sapiens, UniProt P06493); test: CDK1/CyclinB kinase inhibitory activity (Caliper mobility shift); details: enzyme 3 nM, ATP 20 μM, 28° C. 30 min; read-out: CDK1/Cyclin B1 IC50
T1 construct: purchased Millipore 14-450M
Experimental: CDK1/CyclinB kinase inhibitory activity (IC50): 5 μl of various dilutions of test compound in 1× kinase buffer (50 mM HEPES pH 7.5, 10 mM MgCl2, 2 mM DTT and 0.01% Brij-35) was mixed with 10 μL of CDK1/CyclinB (Millipore, 14-450M #, final concentration 3 nM in 1× Kinase buffer) in 384 plates and incubated at room temperature for 10 min. To initiate each reaction, 10 μL of peptide solution containing fluorescently-labeled-peptide 18(5-FAM-QSPKKG-CONH2) (GL, 114202 #, final concentration 3000 nM) and ATP (final concentration 20 μM) in 1× Kinase buffer was added to each of the wells containing test compound and CDK1/CyclinB mixture. The reaction is then allowed to proceed at 28° C. for 30 min and terminated by the addition of 25 μL stop buffer (100 mM HEPES pH 7.5, 50 mM EDTA, 0.2% Coating Reagent #3 (Perkin Elmer, 760050 #) and 0.015% Brij-35).
(§1) Following the kinase reaction, Caliper EZ reader II (Downstream voltages: −500V, Upstream voltages: −2250V, Base pressure −0.5 PSI, Screen pressure −1.2 PSI) was used to separate the phosphorylated (product) and the unphosphorylated (substrate) fluorescently-labeled peptide 18 based on their different mobility. Both substrate and product were measured and the ratio of these values were used to generate % conversion by Caliper EZ reader II. These conversion values were then transformed into % inhibition of kinase activity using the formula: % Inhibition=[(MA−X)/(MA−MI)]×100% where MA=conversion value of DMSO only controls, MI=conversion value of no enzyme controls and X=conversion value at any given compound dose. IC50 values were then calculated by plotting dose-response curves and then using the XLfit application in Excel software.

[2] = biological target: T2, CDK4/CyclinD1 (Homo sapiens, UniProt P11802); test: CDK4/CyclinD1 kinase inhibitory activity (Caliper mobility shift); details: enzyme 20 nM, ATP 672 uM, 28° C. 30 min; read-out: CDK4/Cyclin D1 IC50
T2 construct: purchased ProQinase 0142-0143-1
T2 sequence (P11802 whole entry): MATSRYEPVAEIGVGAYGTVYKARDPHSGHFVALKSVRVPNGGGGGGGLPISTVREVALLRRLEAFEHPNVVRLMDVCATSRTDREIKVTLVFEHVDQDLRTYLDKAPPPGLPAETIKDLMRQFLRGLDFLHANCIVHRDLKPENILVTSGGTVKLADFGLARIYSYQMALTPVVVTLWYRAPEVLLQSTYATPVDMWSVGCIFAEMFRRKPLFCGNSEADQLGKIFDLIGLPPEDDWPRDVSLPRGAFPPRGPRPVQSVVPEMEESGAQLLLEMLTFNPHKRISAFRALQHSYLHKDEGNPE
T2 sequence (P24385 whole entry partner): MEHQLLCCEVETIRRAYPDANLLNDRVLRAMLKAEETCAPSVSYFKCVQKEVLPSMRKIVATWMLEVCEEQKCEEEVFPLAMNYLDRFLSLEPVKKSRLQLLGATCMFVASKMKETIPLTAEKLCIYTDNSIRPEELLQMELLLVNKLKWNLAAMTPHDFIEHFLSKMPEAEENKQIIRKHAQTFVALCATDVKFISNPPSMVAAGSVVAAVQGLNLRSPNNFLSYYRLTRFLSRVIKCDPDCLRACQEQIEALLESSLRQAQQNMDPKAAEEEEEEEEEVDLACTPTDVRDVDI
Procedure, shortened: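 Recombinant CDK4/Cyclin D1 (20 nM final) preincubated 10 min at room temperature with compound in HEPES pH 7.5 buffer with MgCl2, DTT and Triton X-100. Reaction started with 3000 nM FAM-labelled peptide and 672 uM ATP, run 30 min at 28° C, stopped with EDTA. Mobility-shift % conversion gave % inhibition, and IC50 came from dose-response fits.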

[3] = biological target: T3, CDK9/CyclinT1 (Homo sapiens, UniProt P50750); test: CDK9/CyclinT1 kinase inhibitory activity (Caliper mobility shift); details: enzyme 12.5 nM, ATP 10M, 28° C. 30 min; read-out: CDK9/Cyclin T1 IC50
T3 construct: purchased Millipore 14-685M
T3 sequence (P50750 whole entry): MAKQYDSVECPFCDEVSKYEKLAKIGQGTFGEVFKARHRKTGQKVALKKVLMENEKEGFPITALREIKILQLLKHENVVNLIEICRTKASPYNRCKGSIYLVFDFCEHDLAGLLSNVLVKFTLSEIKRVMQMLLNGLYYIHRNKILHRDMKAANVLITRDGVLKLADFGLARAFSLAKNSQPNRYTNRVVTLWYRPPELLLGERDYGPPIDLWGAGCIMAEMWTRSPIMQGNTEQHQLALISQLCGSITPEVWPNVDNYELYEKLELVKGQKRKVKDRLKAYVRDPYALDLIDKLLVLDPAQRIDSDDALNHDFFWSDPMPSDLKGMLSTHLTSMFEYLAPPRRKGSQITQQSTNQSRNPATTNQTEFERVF
T3 sequence (O60563 whole entry partner): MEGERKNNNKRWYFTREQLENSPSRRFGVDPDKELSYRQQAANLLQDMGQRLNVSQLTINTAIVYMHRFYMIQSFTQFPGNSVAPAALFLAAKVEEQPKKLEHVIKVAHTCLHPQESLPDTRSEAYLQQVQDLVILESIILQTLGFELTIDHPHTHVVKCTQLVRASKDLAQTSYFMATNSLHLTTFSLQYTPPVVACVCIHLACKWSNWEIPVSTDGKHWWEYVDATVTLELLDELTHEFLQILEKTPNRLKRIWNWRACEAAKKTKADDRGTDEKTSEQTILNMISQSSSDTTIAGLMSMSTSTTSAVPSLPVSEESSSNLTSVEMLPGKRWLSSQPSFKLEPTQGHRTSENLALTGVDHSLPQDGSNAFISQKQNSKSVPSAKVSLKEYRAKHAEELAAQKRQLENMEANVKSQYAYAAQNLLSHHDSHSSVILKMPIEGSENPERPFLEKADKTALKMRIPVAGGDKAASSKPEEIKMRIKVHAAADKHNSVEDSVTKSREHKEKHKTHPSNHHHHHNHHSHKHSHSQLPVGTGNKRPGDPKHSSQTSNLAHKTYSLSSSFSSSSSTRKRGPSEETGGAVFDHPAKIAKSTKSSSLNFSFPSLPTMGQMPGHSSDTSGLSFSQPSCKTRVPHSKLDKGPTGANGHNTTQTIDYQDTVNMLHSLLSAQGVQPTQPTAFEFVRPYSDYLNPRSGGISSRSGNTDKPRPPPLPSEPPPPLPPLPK
Experimental: CDK9/CyclinT1 kinase inhibitory activity (IC50): 5 μl of various dilutions of test compound in 1× kinase buffer (20 mM HEPES, pH 7.5, 10 mM MgCl2, 2 mM DTT and 0.01% Triton X-100) was mixed with 10 μL of CDK9/CyclinT1 (Millipore, 14-685M #, final concentration 12.5 nM in 1× Kinase buffer) in 384 plates and incubated at room temperature for 10 min. To initiate each reaction, 10 μL of peptide solution containing fluorescently-labeled -peptide CTD3 (5-FAM-[…], GL, SY346885 #, final concentration 3000 nM) and ATP (final concentration […]) in 1× Kinase buffer was added to each of the wells containing test compound and CDK9/CyclinT1 mixture. The reaction is then allowed to proceed at 28° C. for 30 min and terminated by the addition of 25 μL stop buffer (100 mM HEPES pH 7.5, 50 mM EDTA, 0.2% Coating Reagent #3 (Perkin Elmer, 760050 #) and 0.015% Brij-35).
as §1, with “CTD3” for “18”

T1 sequence (P06493 whole entry): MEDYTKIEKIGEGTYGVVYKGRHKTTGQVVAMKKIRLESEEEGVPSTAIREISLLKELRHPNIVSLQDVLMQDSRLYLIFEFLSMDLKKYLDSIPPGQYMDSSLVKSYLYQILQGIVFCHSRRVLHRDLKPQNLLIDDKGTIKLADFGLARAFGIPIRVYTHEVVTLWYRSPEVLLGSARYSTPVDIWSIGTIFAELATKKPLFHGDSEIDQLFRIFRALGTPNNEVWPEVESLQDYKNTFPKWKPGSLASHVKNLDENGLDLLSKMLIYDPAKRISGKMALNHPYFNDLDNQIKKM
T1 sequence (P14635 whole entry partner): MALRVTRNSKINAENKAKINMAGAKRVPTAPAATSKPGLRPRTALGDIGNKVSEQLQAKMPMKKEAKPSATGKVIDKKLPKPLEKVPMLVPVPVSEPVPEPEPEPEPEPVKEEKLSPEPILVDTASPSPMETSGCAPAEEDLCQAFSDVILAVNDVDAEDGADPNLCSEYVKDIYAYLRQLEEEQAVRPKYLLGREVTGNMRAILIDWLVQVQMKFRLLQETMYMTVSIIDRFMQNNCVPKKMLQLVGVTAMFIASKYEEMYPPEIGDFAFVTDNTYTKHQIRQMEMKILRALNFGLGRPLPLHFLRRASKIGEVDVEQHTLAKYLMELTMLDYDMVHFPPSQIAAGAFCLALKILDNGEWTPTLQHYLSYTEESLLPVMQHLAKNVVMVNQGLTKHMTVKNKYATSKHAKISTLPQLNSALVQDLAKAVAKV

In the case of `CNC(C)(C)c1cnc2c(F)cc(-c3nc(N[C@@H]4CCOC[C@H]4O)ncc3Cl)cc2c1` [Example 36], the IC50 [1] is reported as ≥ 1000 nM, the IC50 [2] is reported as 10 to 100 nM and the IC50 [3] is reported as 100 to 1000 nM.
For `O[C@@H]1COCC[C@H]1Nc1ncc(Cl)c(-c2cc(F)c3ncc4c(c3c2)CNC2(CC2)C4)n1` [Example 21, (3S,4R)-4-((5-chloro-4-(7-fluoro-1,4-dihydro-2H-spiro[benzo[c][2,6]naphthyridine-3,1′-cyclopropan]-9-yl)pyrimidin-2-yl)amino)tetrahydro-2H-pyran-3-ol], the IC50 [1] was 100 to 1000 nM, the IC50 [2] was < 10 nM and the IC50 [3] was 100 to 1000 nM.
`CNC(C)c1cnc2c(F)cc(-c3nc(N[C@@H]4CCOC[C@H]4O)ncc3Cl)cc2c1` (single isomer, unassigned) [Example 32a] was tested, and the IC50 [1] was 100 to 1000 nM, the IC50 [2] was < 10 nM and the IC50 [3] was 100 to 1000 nM.
`CC(C)(O)c1cnc2c(F)cc(-c3nc(N[C@@H]4CCOC[C@H]4O)ncc3F)cc2c1Cl` [Example 22, (3S,4R)-4-((4-(4-chloro-8-fluoro-3-(2-hydroxypropan-2-yl)quinolin-6-yl)-5-fluoropyrimidin-2-yl)amino)tetrahydro-2H-pyran-3-ol] was tested, and the IC50 [1] was 100 to 1000 nM, the IC50 [2] was < 10 nM and the IC50 [3] was 100 to 1000 nM.
`Cc1nc2c(F)cc(-c3nc(N[C@@H]4CCOC[C@H]4O)ncc3Cl)cc2c2c1CC(C)(C)NC2` [Example 98] was tested, and the IC50 [1] was ≥ 1000 nM, the IC50 [2] was < 10 nM and the IC50 [3] was 100 to 1000 nM.
For `Cc1nc2c(F)cc(-c3nc(N[C@@H]4CCOC[C@H]4O)ncc3Cl)cc2c2c1CCN(C)C2` [Example 37], the IC50 [1] was ≥ 1000 nM, the IC50 [2] was < 10 nM and the IC50 [3] was ≥ 1000 nM.
For `Cc1nc2c(F)cc(-c3nc(N[C@@H]4CCOC[C@H]4O)ncc3Cl)cc2c(C)c1[C@H](C)O` (single isomer, unassigned) [Example 15b], the IC50 [1] was 100 to 1000 nM, the IC50 [2] was < 10 nM and the IC50 [3] was 100 to 1000 nM.
With `CC(C)(O)c1cnc2c(F)cc(-c3nc(N[C@@H]4CCOC[C@H]4O)ncc3Cl)cc2c1` [Example 1, (3S,4R)-4-((5-chloro-4-(8-fluoro-3-(2-hydroxypropan-2-yl)quinolin-6-yl)pyrimidin-2-yl)amino)tetrahydro-2H-pyran-3-ol] the IC50 [1] was ≥ 1000 nM, the IC50 [2] was < 10 nM and the IC50 [3] was ≥ 1000 nM.
With `[2H]c1nc2c(F)cc(-c3nc(N[C@@H]4CCOC[C@H]4O)ncc3C)cc2c2c1CC1(CC1)NC2` [Example 67] the IC50 [1] was ≥ 1000 nM, the IC50 [2] was 10 to 100 nM and the IC50 [3] was 100 to 1000 nM.
For `Cc1c(C(C)(C)O)cnc2c(F)cc(-c3nc(N[C@@H]4CCOC[C@H]4O)ncc3Cl)cc12` [Example 7, (3S,4R)-4-((5-chloro-4-(8-fluoro-3-(2-hydroxypropan-2-yl)-4-methylquinolin-6-yl)pyrimidin-2-yl)amino)tetrahydro-2H-pyran-3-ol], the IC50 [1] was 100 to 1000 nM, the IC50 [2] was < 10 nM and the IC50 [3] was 100 to 1000 nM.
For `[2H]c1nc(N[C@@H]2CCOC[C@H]2O)nc(-c2cc(F)c3nc([2H])c4c(c3c2)CNC2(CC2)C4)c1Cl` [Example 68], the IC50 [1] was 100 to 1000 nM, the IC50 [2] was < 10 nM and the IC50 [3] was 100 to 1000 nM.
With `[2H]c1nc2c(F)cc(-c3nc(N[C@@H]4CCOC[C@H]4O)ncc3C)cc2c2c1CC(C)(C)NC2` [Example 102] the IC50 [1] was ≥ 1000 nM, the IC50 [2] was < 10 nM and the IC50 [3] was 100 to 1000 nM.
`O[C@@H]1COCC[C@H]1Nc1ncc(Cl)c(-c2cc(F)c3ncc(C4(O)CC4)cc3c2)n1` [Example 29] showed an IC50 [1] of 100 to 1000 nM, an IC50 [2] of 10 to 100 nM and an IC50 [3] of 100 to 1000 nM.
With `Cc1c(C(C)O)cnc2c(F)cc(-c3nc(N[C@@H]4CCOC[C@H]4O)ncc3Cl)cc12` (single isomer, unassigned) [Example 88a] the IC50 [1] was 100 to 1000 nM, the IC50 [2] was < 10 nM and the IC50 [3] was 100 to 1000 nM.
With `[2H]c1nc2c(F)cc(-c3nc(N[C@@H]4CCOC[C@H]4O)ncc3F)cc2c(C)c1C(C)(C)O` [Example 94] the IC50 [1] was 100 to 1000 nM, the IC50 [2] was < 10 nM and the IC50 [3] was 100 to 1000 nM.
`CC1(C)Cc2cnc3c(F)cc(-c4nc(N[C@@H]5CCOC[C@H]5O)ncc4F)cc3c2CN1` [Example 24, (3S,4R)-4-((5-fluoro-4-(7-fluoro-3,3-dimethyl-1,2,3,4-tetrahydrobenzo[c][2,6]naphthyridin-9-yl)pyrimidin-2-yl)amino)tetrahydro-2H-pyran-3-ol] was tested, and the IC50 [1] was 100 to 1000 nM, the IC50 [2] was < 10 nM and the IC50 [3] was 10 to 100 nM.
`CC(C)(N)c1cnc2ccc(-c3nc(N[C@@H]4CCOC[C@H]4O)ncc3Cl)cc2c1` [Example 26] showed an IC50 [1] of 100 to 1000 nM, an IC50 [2] of 10 to 100 nM and an IC50 [3] of 100 to 1000 nM.
For `CC(C)(N)c1cnc2c(F)cc(-c3nc(N[C@@H]4CCOC[C@H]4O)ncc3Cl)cc2c1` [Example 14, (3S,4R)-4-((4-(3-(2-aminopropan-2-yl)-8-fluoroquinolin-6-yl)-5-chloropyrimidin-2-yl)amino)tetrahydro-2H-pyran-3-ol], the IC50 [1] was 10 to 100 nM, the IC50 [2] was < 10 nM and the IC50 [3] was 100 to 1000 nM.
In the case of `Cc1nc2c(F)cc(-c3nc(N[C@@H]4CCOC[C@H]4O)ncc3F)cc2c(C)c1C(C)O` (single isomer, unassigned) [Example 81b], the IC50 [1] is reported as 100 to 1000 nM, the IC50 [2] is reported as < 10 nM and the IC50 [3] is reported as 100 to 1000 nM.
With `[2H]c1nc(N[C@@H]2CCOC[C@H]2O)nc(-c2cc(F)c3nc(C)c(C(C)(C)O)cc3c2)c1F` [Example 83] the IC50 [1] was 100 to 1000 nM, the IC50 [2] was < 10 nM and the IC50 [3] was 100 to 1000 nM.
`Cc1c(C(C)NC2CC2)cnc2c(F)cc(-c3nc(N[C@@H]4CCOC[C@H]4O)ncc3Cl)cc12` (single isomer, unassigned) [Example 91b] was tested, and the IC50 [1] was ≥ 1000 nM, the IC50 [2] was < 10 nM and the IC50 [3] was ≥ 1000 nM.
In the case of `CC1Cc2cnc3c(F)cc(-c4nc(N[C@@H]5CCOC[C@H]5O)ncc4Cl)cc3c2CN1` (single isomer, unassigned) [Example 34a], the IC50 [1] is reported as 100 to 1000 nM, the IC50 [2] is reported as < 10 nM and the IC50 [3] is reported as 10 to 100 nM.
`CC1(C)Cc2cnc3c(F)cc(-c4ccnc(N[C@@H]5CCOC[C@H]5O)n4)cc3c2CN1` [Example 107] was tested, and the IC50 [1] was 100 to 1000 nM, the IC50 [2] was < 10 nM and the IC50 [3] was 100 to 1000 nM.
For `Cc1nc2c(F)cc(-c3nc(N[C@@H]4CCOC[C@H]4O)ncc3Cl)cc2cc1C(C)(C)O` [Example 5, (3S,4R)-4-((5-chloro-4-(8-fluoro-3-(2-hydroxypropan-2-yl)-2-methylquinolin-6-yl)pyrimidin-2-yl)amino)tetrahydro-2H-pyran-3-ol], the IC50 [1] was ≥ 1000 nM, the IC50 [2] was < 10 nM and the IC50 [3] was 100 to 1000 nM.
With `CC1Cc2cnc3c(F)cc(-c4nc(N[C@@H]5CCOC[C@H]5O)ncc4Cl)cc3c2CN1` (single isomer, unassigned) [Example 34b] the IC50 [1] was ≥ 1000 nM, the IC50 [2] was < 10 nM and the IC50 [3] was 100 to 1000 nM.
In the case of `O[C@@H]1COCC[C@H]1Nc1cc(-c2cc(F)c3ncc4c(c3c2)CNCC4)c(Cl)cn1` [Example 25], the IC50 [1] is reported as 10 to 100 nM, the IC50 [2] is reported as < 10 nM and the IC50 [3] is reported as 10 to 100 nM.
In the case of `CNC(C)c1cc2cc(-c3nc(N[C@@H]4CCOC[C@H]4O)ncc3Cl)cc(F)c2nc1C` (single isomer, unassigned) [Example 45b], the IC50 [1] is reported as ≥ 1000 nM, the IC50 [2] is reported as < 10 nM and the IC50 [3] is reported as ≥ 1000 nM.
With `CC(O)c1cnc2c(F)cc(-c3nc(N[C@@H]4CCOC[C@H]4O)ncc3Cl)cc2c1Cl` (single isomer, unassigned) [Example 40a] the IC50 [2] was < 10 nM and the IC50 [3] was 100 to 1000 nM.

Reference: patent publication US20260242395A1, “AMINOHETEROARYL KINASE INHIBITORS” (ALLORION THERAPEUTICS INC, priority 2022, published 2026)
